Legend:
HPPD Seq ID 69 ID406 = assay: HPPD activity assay; type: biochemical, Zea mays; conditions: HPPD enzyme Seq ID 69 ID406;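 note: reaction started with 4-HPP at 0.05 mM after 30 min preincubation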
Method: (§1) The activity assay for HPPD is based on the analysis of homogentisic acid by reversed phase HPLC.
(§2) The assay mixture can contain 150 mM potassium phosphate buffer pH 7.0, 50 mM L-ascorbic acid, 100 μM Catalase (Sigma-Aldrich), 1 μM FeSO4 and 0.2 units of purified HPPD enzyme in a total volume of 505 μl. 1 unit is defined as the amount of enzyme that is required to produce 1 nmol of HGA per minute at 20° C.
(§3) The reaction is allowed to proceed for 45 min at room temperature. The reaction is stopped by the addition of 50 μl of 4.5 M phosphoric acid. The sample is filtered using a […] pore size PVDF filtration device. 5 μl of the cleared sample is analyzed on an UPLC HSS T3 column (particle size 1.8 μm, dimensions 2, 1×50 mm; Waters) by isocratic elution using 90% 20 mM NaH2PO4 pH 2.2, 10% methanol (v/v).
(§4) HGA is detected electrochemically at 750 mV (mode: DC; polarity: positive) and quantified by integrating peak areas (Empower software; Waters).
(§5) Inhibitors are dissolved in DMSO (dimethylsulfoxide) to a concentration of 0.5 mM. From this stock solution serial five-fold dilutions are prepared in DMSO, which are used in the assay. The respective inhibitor solution accounts for 1% of the assay volume. Thus, final inhibitor concentrations range from 5 μM to 320 pM, respectively. Activities are normalized by setting the uninhibited enzyme activity to 100%. IC50 values are calculated using non-linear regression.
(§6) Using methods which are described in the above examples or well known in the art, purified recombinant wild-type HPPD enzymes are characterized with respect to their kinetic properties and sensitivity towards HPPD inhibiting herbicides. Apparent michaelis constants (Km) and maximal reaction velocities (Vmax) are calculated by non-linear regression with the software GraphPad Prism 5 (GraphPad Software, La Jolla, USA) using a substrate inhibition model. […] Weighted means (by standard error) of Km and IC50 values are calculated from at least three independent experiments. The Cheng-Prusoff equation for competitive inhibition (Cheng, Y. C.; Prusoff, W. H. Biochem Pharmacol 1973, 22, 3099-3108) is used to calculate dissociation constants (Ki).
(§7) Field performance of the HPPD enzyme, which is used as a herbicide tolerance trait may depend not only on its lack of sensitivity towards HPPD inhibiting herbicides but also on its activity. To assess the potential performance of a herbicide tolerance trait a tolerance index (TI) is calculated using the following formula: […]
(§8) Easy comparison and ranking of each trait is enabled by normalizing tolerance indexes on Arabidopsis wild-type HPPD.

HPPD Seq ID 67 ID10 = assay: HPPD activity assay; type: biochemical, Zea mays; conditions: HPPD enzyme Seq ID 67 ID10;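 note: reaction started with 4-HPP at 0.05 mM after 30 min preincubation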
Method: as §1, §2, §3, §4, §5, §6, §7, §8

Picrophilus HPPD = assay: HPPD activity assay; type: biochemical, Picrophilus torridus; conditions: HPPD enzyme Picrophilus
Method: as §1, §2, §3, §4, §5, §6, §7, §8

Avena HPPD = assay: HPPD activity assay; type: biochemical, Avena sativa; conditions: HPPD enzyme Avena
Method: as §1, §2, §3, §4, §5, §6, §7, §8

Lolium HPPD = assay: HPPD activity assay; type: biochemical; conditions: HPPD enzyme Lolium
Method: as §1, §2, §3, §4, §5, §6, §7, §8

Rhodococcus HPPD1 = assay: HPPD activity assay; type: biochemical; conditions: HPPD enzyme Rhodococcus HPPD1
Method: as §1, §2, §3, §4, §5, §6, §7, §8

Kordia HPPD = assay: HPPD activity assay; type: biochemical; conditions: HPPD enzyme Kordia
Method: as §1, §2, §3, §4, §5, §6, §7, §8

[1] = target: T1, Hordeum HPPD (SEQ ID NO:2) (Hordeum vulgare, UniProt O48604, A164G/R146V/R147D/R148G); assay: HPPD activity assay; type: biochemical; conditions: for Normalized tolerance index (TI): Hordeum HPPD variant Wild-type (reference, SEQ ID NO: 2); for TI (tolerance index): Hordeum HPPD, not normalized
T1 construct: His-tag (N); made in house; host or cells: E. coli BL21 (DE3)
T1 sequence (O48604 whole entry R146V/R147D/R148G/A164G): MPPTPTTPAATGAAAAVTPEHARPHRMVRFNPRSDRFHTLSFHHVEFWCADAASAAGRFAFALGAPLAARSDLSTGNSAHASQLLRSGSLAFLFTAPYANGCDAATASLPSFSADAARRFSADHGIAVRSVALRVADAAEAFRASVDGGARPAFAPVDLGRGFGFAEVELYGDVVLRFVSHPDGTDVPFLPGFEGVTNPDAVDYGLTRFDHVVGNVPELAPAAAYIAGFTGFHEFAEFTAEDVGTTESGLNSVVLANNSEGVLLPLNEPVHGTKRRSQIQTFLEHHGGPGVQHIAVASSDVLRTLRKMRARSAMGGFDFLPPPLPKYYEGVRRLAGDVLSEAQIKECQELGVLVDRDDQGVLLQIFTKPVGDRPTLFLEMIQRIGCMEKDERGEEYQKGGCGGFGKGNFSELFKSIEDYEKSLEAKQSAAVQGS
Method: as §1, §2, §3, §4, §5, §6, §7, §8

Rhodococcus HPPD2 = assay: HPPD activity assay; type: biochemical; conditions: HPPD enzyme Rhodococcus HPPD2
Method: as §1, §2, §3, §4, §5, §6, §7, §8

Synechococcus HPPD = assay: HPPD activity assay; type: biochemical; conditions: HPPD enzyme Synechococcus
Method: as §1, §2, §3, §4, §5, §6, §7, §8

Chlamydomonas HPPD1 = assay: HPPD activity assay; type: biochemical, Chlamydomonas reinhardtii; conditions: HPPD enzyme Chlamydomonas HPPD1;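 note: reaction started with 4-HPP at 0.05 mM after 30 min preincubation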
Method: as §1, §2, §3, §4, §5, §6, §7, §8

[2] = target: T2, Hordeum HPPD L320H, P321A (Hordeum vulgare, UniProt O48604, L320H/P321A); assay: HPPD activity assay, mutant; type: biochemical; conditions: Hordeum HPPD variant L320H, normalized on wild-type
T2 construct: His-tag (N); made in house; host or cells: E. coli BL21 (DE3)
T2 sequence (O48604 whole entry R146V/R147D/R148G/A164G/L320H/P321A): as the sequence (O48604 whole entry R146V/R147D/R148G/A164G) above, with L320H, P321A counted along it
Method: as §1, §2, §3, §4, §5
(§9) Purified, mutant HPPD enzymes are obtained by the methods described above. Dose response and kinetic measurements are carried out using the described HPPD activity assay. Apparent michaelis constants (Km) and maximal reaction velocities (Vmax) are calculated by non-linear regression with the software GraphPad Prism 5 (GraphPad Software, La Jolla, USA) using a substrate inhibition model. […] Weighted means (by standard error) of K. and IC50 values are calculated from at least three independent experiments. The Cheng-Prusoff equation for competitive inhibition (Cheng, Y. C.; Prusoff, W. H. Biochem Pharmacol 1973, 22, 3099-3108) is used to calculate dissociation constants (Ki).
as §7, with “of the optimized HPPD enzyme,” for “of the HPPD enzyme,”
(§10) Easy comparison and ranking of each trait is enabled by normalizing tolerance indexes on the respective wild-type HPPD.

Hordeum HPPD L320H = target: T3, Hordeum HPPD L320H (Hordeum vulgare, UniProt O48604, A164G/L320H/R146V/R147D/R148G); assay: HPPD activity assay, mutant; type: biochemical; conditions: Hordeum HPPD variant L320H; normalized on wild-type;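 note: reaction started with 4-HPP at 0.05 mM after 30 min preincubation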
T3 construct: His-tag (N); made in house; host or cells: E. coli BL21 (DE3)
T3 sequence (O48604 whole entry R146V/R147D/R148G/A164G/L320H): as the sequence (O48604 whole entry R146V/R147D/R148G/A164G) above, with L320H counted along it
Method: as §1, §2, §3, §4, §5, §9
as §7, with “of the optimized HPPD enzyme,” for “of the HPPD enzyme,”
as §10

[3] = target: T4, Hordeum HPPD L353M, P321R, L320Q (Hordeum vulgare, UniProt O48604, L320Q/L353M/P321R); assay: HPPD activity assay, mutant; type: biochemical; conditions: Hordeum HPPD variant L353M, normalized on wild-type;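 note: reaction started with 4-HPP at 0.05 mM after 30 min preincubation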
T4 construct: His-tag (N); made in house; host or cells: E. coli BL21 (DE3)
T4 sequence (O48604 whole entry R146V/R147D/R148G/A164G/L320Q/P321R/L353M): as the sequence (O48604 whole entry R146V/R147D/R148G/A164G) above, with L320Q, P321R, L353M counted along it
Method: as §1, §2, §3, §4, §5, §9
as §7, with “of the optimized HPPD enzyme,” for “of the HPPD enzyme,”
as §10

Hordeum HPPD L320Q = target: T5, Hordeum HPPD L320Q (Hordeum vulgare, UniProt O48604, A164G/L320Q/R146V/R147D/R148G); assay: HPPD activity assay, mutant; type: biochemical; conditions: Hordeum HPPD variant L320Q; normalized on wild-type
T5 construct: His-tag (N); made in house; host or cells: E. coli BL21 (DE3)
T5 sequence (O48604 whole entry R146V/R147D/R148G/A164G/L320Q): as the sequence (O48604 whole entry R146V/R147D/R148G/A164G) above, with L320Q counted along it
Method: as §1, §2, §3, §4, §5, §9
as §7, with “of the optimized HPPD enzyme,” for “of the HPPD enzyme,”
as §10

Hordeum HPPD F404L = target: T6, Hordeum HPPD F404L (Hordeum vulgare, UniProt O48604, A164G/F404L/R146V/R147D/R148G); assay: HPPD activity assay, mutant; type: biochemical; conditions: Hordeum HPPD variant F404L; normalized on wild-type
T6 construct: subcloned into a modified pET24D (Novagen) expression vector resulting in N-terminally His-tagged expression constructs; His tag (N); made in house; host or cells: E. coli BL21 (DE3)
T6 sequence (O48604 whole entry R146V/R147D/R148G/A164G/F404L): as the sequence (O48604 whole entry R146V/R147D/R148G/A164G) above, with F404L counted along it
Method: as §1, §2, §3, §4, §5, §9
as §7, with “of the optimized HPPD enzyme,” for “of the HPPD enzyme,”
as §10

SMILES	TI normalized to Arabidopsis HPPD (HPPD Seq ID 69 ID406)	TI normalized to Arabidopsis HPPD (HPPD Seq ID 67 ID10)	TI normalized to Arabidopsis HPPD (Picrophilus HPPD)	TI normalized to Arabidopsis HPPD (Avena HPPD)	TI normalized to Arabidopsis HPPD (Lolium HPPD)	TI normalized to Arabidopsis HPPD (Rhodococcus HPPD1)	TI normalized to Arabidopsis HPPD (Kordia HPPD)	Ki [1]	Normalized tolerance index (TI) [1]	TI (tolerance index) [1]	TI normalized to Arabidopsis HPPD (Rhodococcus HPPD2)	TI normalized to Arabidopsis HPPD (Synechococcus HPPD)	TI normalized to Arabidopsis HPPD (Chlamydomonas HPPD1)	Normalized tolerance index (TI) [2]	Normalized tolerance index (TI) (Hordeum HPPD L320H)	Normalized tolerance index (TI) [3]	Normalized tolerance index (TI) (Hordeum HPPD L320Q)	Normalized tolerance index (TI) (Hordeum HPPD F404L)
Cc1c(C(=O)c2cnn(C)c2O)ccc(S(C)(=O)=O)c1C1=NOCC1 [Inhibitor 1, [3-(4,5-dihydroisoxazol-3-yl)-2-methyl-4-methylsulfonyl-phenyl]-(5-hydroxy-1-methyl-pyrazol-4-yl)methanone]	15	120.8	10.4	1.6	1.7	18.9	3.2	7.9 nM	1	3.5E−3	19.3	6.7	1.7	5.1	5.4	5.3	1.2	3
CS(=O)(=O)c1ccc(C(=O)C2C(=O)CCCC2=O)c([N+](=O)[O-])c1 [Inhibitor 2, 2-(4-methylsulfonyl-2-nitro-benzoyl)cyclohexane-1,3-dione]	5.6	22.9	0.2	3	2.6	0.3	0.1	73 nM	1	3.2E−2	0.3	2.1	0.1	3.5	1.2	2.2	0.3	0.9
COCCOCc1nc(C(F)(F)F)ccc1C(=O)C1=C(O)C2CCC(C2)C1=O (centres unmarked) [Inhibitor 3, 2-hydroxy-3-[2-(2-methoxyethoxymethyl)-6-(trifluoromethyl)pyridine-3-carbonyl]bicyclo[3.2.1]oct-2-en-4-one]	9.9	20.1	7.8	2.5	2.5	1.2	0.3		1		1.3	0.0	0.1	2.5	3	0.6	1.1	0.4
CS(=O)(=O)c1ccc(C(=O)C2C(=O)CCCC2=O)c(Cl)c1COCC(F)(F)F [Inhibitor 4, 2-[2-chloro-4-methylsulfonyl-3-(2,2,2-trifluoroethoxymethyl)benzoyl]cyclohexane-1,3-dione]	5.5	26	0.4	3	2.6	0.6	0.1		1		0.5	0.1	0.1	4.3	5.1	1.3	1	1.2

Source: patent publication US12065654B2, “Plants having increased tolerance to herbicides” (BASF SE, priority 2014, dated 2024)
